In patent US12630547B2, “RAS protein degraders, pharmaceutical compositions thereof, and their therapeutic applications” (BioTheryX, Inc., priority 2019, dated 2026):

Key:
Type in all cases: cell-based
MOLM-13 cells = test: Cell viability assay (CELLTITER-GLO), MOLM-13 cells; settings: Homo sapiens, MOLM-13, 72 h; Table 2; compound at 10 μM, 3 days; read-out: Effect on MOLM-13 cell viability (% DMSO)
Procedure: (§1) MOLM-13 cells, MV-4-11 cells, H23, and H358 cells were independently cultured in RPMI 1640 media supplemented with 10% fetal bovine serum, streptomycin and penicillin. The cells were plated in white walled 96-well plates at 4,000 cells/well. The cells were incubated in DMSO (control) or a compound for 3 days at 37° C. under 5% CO2. A CELLTITER-GLO® reagent (100 μL) was then added to each well. After a 10 min incubation with shaking, luminescence was measured using an ENVISION® multimode plate reader.
In Tables 1 and 2, each compound was tested at 10 μM; and in Table 3, each compound was tested at 1 μM. In Tables 1 to 3, the cell viability values as % DMSO are reported as “A,” “B,” “C,” or “D;” where “A” represents a % viability value of less than 10%; “B” represents a % viability value of no less than 10% and less than 25%; “C” represents a % viability value of no less than 25% and less than 50%; and “D” represents a % viability value of no less than 50%. Compound A is […]

H358 cells = test: Cell viability assay (CELLTITER-GLO), H358 cells; settings: Table 4; 3 days
Procedure: as §1
In Tables 1 and 2, each compound was tested at 10 μM; and in Table 3, each compound was tested at 1 μM. In Tables 1 to 3, the cell viability values as % DMSO are reported as “A,” “B,” “C,” or “D;” where “A” represents a % viability value of less than 10%; “B” represents a % viability value of no less than 10% and less than 25%; “C” represents a % viability value of no less than 25% and less than 50%; and “D” represents a % viability value of no less than 50%. Compound A is
(§2) IC50 values are summarized in Table 4, where “A” represents an IC50 value of no greater than 1 μM, “B” represents an IC50 value of greater than 1 μM and no greater than 5 μM, “C” represents an IC50 value of greater than 5 μM and no greater than 10 μM, and “D” represents an IC50 value of greater than 10 μM.

H23 cells = test: Cell viability assay (CELLTITER-GLO), H23 cells; settings: Table 4; 3 days
Procedure: as §1, §2

Row | Inhibition of H358 cells, IC50 (class) (H358 cells) | Compound | viability at 10 µM (MOLM-13 cells) [%] | Inhibition of H23 cells, IC50 (class) (H23 cells)
1 | B′ | CCC(=O)N1CCN(c2ncnc3c(Cl)c(-c4c(F)cccc4OCCCCCCCCN4CCC(c5cc(F)cc6c5CN(C5CCC(=O)NC5=O)C6=O)CC4)c(F)cc23)CC1 (stereo not drawn) [Compound 20, 3-(4-(1-(8-(2-(8-Chloro-6-fluoro-4-(4-propionylpiperazin-1-yl)quinazolin-7-yl)-3-fluorophenoxy)octyl)piperidin-4-yl)-6-fluoro-1-oxoisoindolin-2-yl)piperidine-2,6-dione] | < 10 | B′
2 | B′ | C=CC(=O)N1CCN(c2ncnc3c(F)c(-c4c(F)cccc4OCCOCCOCCOCCNc4cccc5c4C(=O)N(C4CCC(=O)NC4=O)C5=O)c(Cl)cc23)CC1 (stereo not drawn) [Compound 23, 4-((2-(2-(2-(2-(2-(4-(4-Acryloylpiperazin-1-yl)-6-chloro-8-fluoroquinazolin-7-yl)-3-fluorophenoxy)ethoxy)ethoxy)ethoxy)ethyl)amino)-2-(2,6-dioxopiperidin-3-yl)isoindoline-1,3-dione] | < 10 | B′
3 | B′ | C=CC(=O)N1CCN(c2ncnc3c(F)c(-c4c(F)cccc4OCCCCCCCNCc4ccc(OCc5scc6c5CN([C@H]5CCC(=O)NC5=O)C6=O)cc4)c(Cl)cc23)CC1 [Compound 24, (3S)-3-(1-((4-(((7-(2-(4-(4-Acryloylpiperazin-1-yl)-6-chloro-8-fluoroquinazolin-7-yl)-3-fluorophenoxy)heptyl)amino)methyl)phenoxy)methyl)-4-oxo-4H-thieno[3,4-c]pyrrol-5(6H)-yl)piperidine-2,6-dione] | < 10 | B′
4 | D′ | CCC(=O)N1CCN(c2nc(OCCOCCOCCOCCNc3cccc4c3C(=O)N(C3CCC(=O)NC3=O)C4=O)nc3c2CCN(c2cccc4ccccc24)C3)C[C@H]1C (stereo partly drawn) [Compound 48, 2-(2,6-Dioxopiperidin-3-yl)-4-((2-(2-(2-(2-((4-((R)-3-methyl-4-propionylpiperazin-1-yl)-7-(naphthalen-1-yl)-5,6,7,8-tetrahydropyrido[3,4-d]pyrimidin-2-yl)oxy)ethoxy)ethoxy)ethoxy)ethyl)-amino)isoindoline-1,3-dione] | – | D′
5 | B′ | CCC(=O)N1CCN(c2ncnc3c(Cl)c(-c4c(F)cccc4OCCCCCCCCN4CCC(c5cc(F)cc6c5CN(C5CCC(=O)NC5=O)C6=O)CC4)c(F)cc23)CC1 [Compound 49, 3-(4-(1-(8-((R)-2-(8-Chloro-6-fluoro-4-(4-propionylpiperazin-1-yl)quinazolin-7-yl)-3-fluorophenoxy)octyl)piperidin-4-yl)-6-fluoro-1-oxoisoindolin-2-yl)piperidine-2,6-dione] | – | B′
6 | A′ | C=CC(=O)N1CCN(c2ncnc3c(F)c(-c4c(F)cccc4OCCCCCCC(=O)N[C@H](C(=O)N4C[C@H](O)C[C@H]4C(=O)NCc4ccc(-c5scnc5C)cc4)C(C)(C)C)c(Cl)cc23)CC1 [Compound 50, (2S,4R)-1-((2S)-2-(7-(2-(4-(4-Acryloylpiperazin-1-yl)-6-chloro-8-fluoroquinazolin-7-yl)-3-fluorophenoxy)heptanamido)-3,3-dimethylbutanoyl)-4-hydroxy-N-(4-(4-methylthiazol-5-yl)benzyl)pyrrolidine-2-carboxamide] | – | B′
7 | B′ | O=C1CCC(N2Cc3c(cc(F)cc3C3CCN(CCCCCCCOc4cccc(F)c4-c4c(Cl)cc5c(N6CCN(C(=O)C7CCCC7)CC6)ncnc5c4F)CC3)C2=O)C(=O)N1 (stereo not drawn) [Compound 51, 3-(4-(1-(7-(2-(6-Chloro-4-(4-(cyclopentanecarbonyl)piperazin-1-yl)-8-fluoroquinazolin-7-yl)-3-fluorophenoxy)heptyl)piperidin-4-yl)-6-fluoro-1-oxoisoindolin-2-yl)piperidine-2,6-dione] | – | B′
8 | C′ | O=C1CCC(N2Cc3c(cc(F)cc3C3CCN(CCCCCCCOc4cccc(F)c4-c4c(Cl)cc5c(N6CCN(C(=O)C7CCOCC7)CC6)ncnc5c4F)CC3)C2=O)C(=O)N1 (stereo not drawn) [Compound 52, 3-(4-(1-(7-(2-(6-Chloro-8-fluoro-4-(4-(tetrahydro-2H-pyran-4-carbonyl)piperazin-1-yl)quinazolin-7-yl)-3-fluorophenoxy)heptyl)piperidin-4-yl)-6-fluoro-1-oxoisoindolin-2-yl)piperidine-2,6-dione] | – | B′
9 | B′ | O=C1CCC(N2Cc3c(cc(F)cc3C3CCN(CCCCCCCOc4cccc(F)c4-c4c(Cl)cc5c(N6CCN(C(=O)CC7CC7)CC6)ncnc5c4F)CC3)C2=O)C(=O)N1 (stereo not drawn) [Compound 53, 3-(4-(1-(7-(2-(6-Chloro-4-(4-(2-cyclopropylacetyl)piperazin-1-yl)-8-fluoroquinazolin-7-yl)-3-fluorophenoxy)heptyl)piperidin-4-yl)-6-fluoro-1-oxoisoindolin-2-yl)piperidine-2,6-dione] | – | B′
10 | C′ | O=C1CCC(N2Cc3c(cc(F)cc3C3CCN(CCCCCCCOc4cccc(F)c4-c4c(Cl)cc5c(N6CCN(C(=O)C7CCOC7)CC6)ncnc5c4F)CC3)C2=O)C(=O)N1 (stereo not drawn) [Compound 54, 3-(4-(1-(7-(2-(6-Chloro-8-fluoro-4-(4-(tetrahydrofuran-3-carbonyl)piperazin-1-yl)quinazolin-7-yl)-3-fluorophenoxy)heptyl)piperidin-4-yl)-6-fluoro-1-oxoisoindolin-2-yl)piperidine-2,6-dione] | – | B′
11 | D′ | CCC(=O)N1CCN(c2ncnc3c(F)c(-c4c(F)cccc4OCCCCCN4CCC(c5cc(F)cc6c5CN(C5CCC(=O)NC5=O)C6=O)CC4)c(Cl)cc23)CC1 (stereo not drawn) [Compound 60, 3-(4-(1-(5-(2-(6-Chloro-8-fluoro-4-(4-propionylpiperazin-1-yl)quinazolin-7-yl)-3-fluorophenoxy)pentyl)piperidin-4-yl)-6-fluoro-1-oxoisoindolin-2-yl)piperidine-2,6-dione] | – | C′
12 | B′ | CCC(=O)N1CCN(c2nc(NCCC(=O)N(C)C)nc3c(F)c(-c4c(F)cccc4OCCCCCCCN4CCC(c5cc(F)cc6c5CN(C5CCC(=O)NC5=O)C6=O)CC4)c(Cl)cc23)CC1 (stereo not drawn) [Compound 86, 3-((6-Chloro-7-(2-((7-(4-(2-(2,6-dioxopiperidin-3-yl)-6-fluoro-1-oxoisoindolin-4-yl)piperidin-1-yl)heptyl)oxy)-6-fluorophenyl)-8-fluoro-4-(4-propionylpiperazin-1-yl)quinazolin-2-yl)amino)-N,N-dimethylpropanamide] | – | B′
13 | A′ | C=C(Cl)C(=O)N1CCN(c2ncnc3c(F)c(-c4c(F)cccc4OCCCCCCCN4CCCC(c5cc(F)cc6c5CN(C5CCC(=O)NC5=O)C6=O)C4)c(Cl)cc23)CC1 (stereo not drawn) [Compound 106, 3-(4-(1-(7-(2-(6-Chloro-4-(4-(2-chloroacryloyl)piperazin-1-yl)-8-fluoroquinazolin-7-yl)-3-fluorophenoxy)heptyl)piperidin-3-yl)-6-fluoro-1-oxoisoindolin-2-yl)piperidine-2,6-dione] | – | A′
14 | A′ | C=C(Cl)C(=O)N1CCN(c2ncnc3c(F)c(-c4c(F)cccc4OCCc4ccc(CCN5CCC(c6cc(F)cc7c6CN(C6CCC(=O)NC6=O)C7=O)CC5)cc4)c(Cl)cc23)C[C@H]1CC#N (stereo partly drawn) [Compound 131, 2-((2R)-4-(6-Chloro-7-(2-(4-(2-(4-(2-(2,6-dioxopiperidin-3-yl)-6-fluoro-1-oxoisoindolin-4-yl)piperidin-1-yl)ethyl)phenethoxy)-6-fluorophenyl)-8-fluoroquinazolin-4-yl)-1-(2-chloroacryloyl)piperazin-2-yl)acetonitrile] | – | A′
15 | B′ | C=C(Cl)C(=O)N1CCN(c2nc(OC[C@@H]3CCCN3C)nc3c(F)c(-c4c(F)cccc4OCCCCCCCN4CCC(c5cc6c(cc5F)C(=O)N(C5CCC(=O)NC5=O)C6)CC4)c(Cl)cc23)C[C@H]1CC#N (stereo partly drawn) [Compound 132, 2-((2R)-4-(6-Chloro-7-(2-((7-(4-(2-(2,6-dioxopiperidin-3-yl)-6-fluoro-1-oxoisoindolin-5-yl)piperidin-1-yl)heptyl)oxy)-6-fluorophenyl)-8-fluoro-2-(((S)-1-methylpyrrolidin-2-yl)methoxy)quinazolin-4-yl)-1-(2-chloroacryloyl)piperazin-2-yl)acetonitrile] | – | B′
